In US20150289512A1, “METHOD FOR PROMOTING PLANT GROWTH” (SUMITOMO CHEMICAL COMPANY, LIMITED, priority 2012, published 2015):

How the values were obtained:
Type in all cases: in vivo
[1] = tested on: Rice (variety: Nipponbare); test: Test Example 1: promotion of root growth by hydroponics of rice, 10 ppm; conditions: hydroponic solution containing the test compound at 10 ppm, average of 4 or 5 individuals; for change in vivo at 10 ppm: Oryza sativa, read-out: Relative value of length of seminal root (%-untreated control plot)
Experimental: (§1) Test for Evaluating Promotion of Root Growth by Hydroponics of Rice
(§2) Rice (variety: Nipponbare)
(§3) Rice seeds were soaked in a 1% aqueous sodium hypochlorite solution for 10 minutes, then soaked in a 70% ethanol solution for surface sterilization, and then washed with distilled water. The sterilized seeds were soaked in a hydroponic solution containing the test compound described above at 10 ppm and incubated in a dark place for 3 days at 28° C. to perform treatment for hastening germination.
(§4) Thereafter, 30 ml of hydroponic solution containing the test compound at 10 ppm was dispensed in a plastic tube (diameter of 20 mm×height of 113 mm) of which the side was covered with cardboard to block light. A float prepared using a styrene board and vinyl mesh was floated, and the rice seeds that had undergone the treatment for hastening germination were placed on the float on the surface of the hydroponic solution. The seeds were cultivated for 3 days at 26° C., an illuminance of 4,000 lux of the top surface of the tube, a humidity of 50%, and a day length of 16 hours.
(§5) The nursery plants of rice obtained after culturing were measured in terms of the length of seminal root by using WinRHIZO system (manufactured by Regent Instruments Inc). For each test plot, an average of the measured values of the seminal root of 4 or 5 individuals was determined.

[2] = tested on: Rice (variety: Nipponbare); test: Test Example 2: promotion of root growth by hydroponics of rice, 1 ppm; conditions: hydroponic solution containing the test compound at 1 ppm, average of 4 or 5 individuals; for change in vivo at 1 ppm: Oryza sativa, read-out: Relative value of length of seminal root (%-untreated control plot)
Experimental: as §1, §2
A DMSO solution, which contained one of the compounds 1, 3, 11, 12, 14, 15, 17, 21, 28, 30, 33, 34, 35, 36, 37, 38, 40, 41, 43, 44, 45, 46, 47, 49, 50, 51, 52, 53, 54, 55, 56, 61, 62, 63, 65, 67, 68, 69, 70, 73, 74, 75, 76, 77, 80, 82, 83, 85 and 86 of the present invention at a concentration of 10,000 ppm, was added to Hoagland hydroponic solution (Hoagland and Arnon, California Agricultural Experiment Station 1950 Circular 347 pp. 34) of ¼-fold concentration at a volume ratio of 1/10,000. In this manner, hydroponic solutions containing one of the compounds 1, 3, 11, 12, 14, 15, 17, 21, 28, 30, 33, 34, 35, 36, 37, 38, 40, 41, 43, 44, 45, 46, 47, 49, 50, 51, 52, 53, 54, 55, 56, 61, 62, 63, 65, 67, 68, 69, 70, 73, 74, 75, 76, 77, 80, 82, 83, 85 and 86 of the present invention at 1 ppm were prepared respectively. As an untreated control plot, a hydroponic solution obtained by adding DMSO to Hoagland hydroponic solution of ¼-fold concentration at a volume ratio of 1/10,000 was used. Rice seeds were soaked in a 1% aqueous sodium hypochlorite solution for 10 minutes, then soaked in a 70% ethanol solution for surface sterilization, and then washed with distilled water. The sterilized seeds were soaked in a hydroponic solution containing the test compound described above at 1 ppm and incubated in a dark place for 3 days at 28° C. to perform treatment for hastening germination.
as §4, with “1” for “10”
The nursery plants of rice obtained after cultivation were measured in terms of the length of seminal root by using WinRHIZO system (manufactured by Regent Instruments Inc). For each test plot, an average of the measured values of the seminal root of 4 or 5 individuals was determined.

[3] = tested on: Rice (variety: Nipponbare); test: Test Example 3: promotion of root growth by hydroponics of rice, 0.1 ppm; conditions: Oryza sativa, hydroponic solution containing the test compound at 0.1 ppm, average of 4 or 5 individuals, read-out: Relative value of length of seminal root (%-untreated control plot)
Experimental: as §1, §2
A DMSO solution, which contained one of the compounds 2, 6, 7, 16, 20, 33, 34, 36, 37, 38, 40, 41, 43, 44, 45, 46, 47, 48, 50, 51, 52, 53, 54, 55, 56, 61, 64, 67, 68, 71, 72, 73, 74, 75, 76, 79, 80, 81 and 83 of the present invention at a concentration of 1,000 ppm, was added to Hoagland hydroponic solution (Hoagland and Arnon, California Agricultural Experiment Station 1950 Circular 347 pp. 34) of ¼-fold concentration at a volume ratio of 1/10,000. In this manner, hydroponic solutions containing one of the compounds 2, 6, 7, 16, 20, 33, 34, 36, 37, 38, 40, 41, 43, 44, 45, 46, 47, 48, 50, 51, 52, 53, 54, 55, 56, 61, 64, 67, 68, 71, 72, 73, 74, 75, 76, 79, 80, 81 and 83 of the present invention at 0.1 ppm were prepared respectively. As an untreated control plot, a hydroponic solution obtained by adding DMSO to Hoagland hydroponic solution of ¼-fold concentration at a volume ratio of 1/10,000 was used.
as §3, with “at 0.1” for “at 10”
as §4, with “0.1” for “10”
as §5

Nicotiana benthamiana = test: Test Example 4: growth promotion under low-temperature stress by hydroponics of Nicotiana benthamiana, 10 ppm; conditions: 10 ppm in medium, low-temperature stress 7 days at 1.5±1.0° C., green leaf area 3 days later, equation (1)
Experimental: Test for Evaluating Growth Promotion Under Low-Temperature Stress by Hydroponics of Nicotiana benthamiana
A DMSO solution, which contained one of the compounds 1, 8, 9, 13, 18, 19, 22, 23, 29, 32, 33, 34, 39, 40, 41, 43, 44, 51, 53, 54, 55, 56, 58, 60, 62, 63, 64, 65, 67, 69, 71, 73, 74, 75, 77, 79, 82, 83 and 86 of the present invention at a concentration of 10,000 ppm, was prepared. The DMSO solution of the compound of the present invention was added at a volume ratio of 1/1,000 to the Murashige•Scoog medium of a ½-fold concentration (a medium containing 2.3 g of mixed salts for the Murashige•Scoog medium (manufactured by Wako Pure Chemical Industries, Ltd.), 200 mg of Myo-inositol (manufactured by Sigma-Aldrich Co. LLC.), 2 mg of nicotinic acid (manufactured by Wako Pure Chemical Industries, Ltd.), 2 mg of pyridoxine hydrochloride (manufactured by Wako Pure Chemical Industries, Ltd.), 20 mg of thiamine hydrochloride (manufactured by Wako Pure Chemical Industries, Ltd.), 20 g of sucrose (manufactured by Wako Pure Chemical Industries, Ltd.), and 1 g of MES (manufactured by DOJINDO LABORATORIES) per 1 L of water and having pH adjusted to 5.8), thereby preparing a medium containing the compound of the present invention at a concentration of 10 ppm.
Seeds of Nicotiana benthamiana were seeded in the 5 μL of the medium and cultured overnight at 22° C. Thereafter, 45 μL of the medium containing the compound of the present invention at a concentration of 10 ppm was added thereto, and the seeds are cultivated for 7 days at 22° C., an illuminance of 4,000 lux, and a day length of 16 hours, and the nursery plants raised from the Nicotiana benthamiana were treated with the compound. Moreover, instead of the above medium, a test plot, which was obtained by performing the same treatment by using a medium prepared by adding DMSO to the Murashige•Scoog medium of ½-fold concentration at a volume ratio of 1/1,000, was used as a control plot not treated with the compound.
The nursery plants of the Nicotiana benthamiana treated with the compound were subjected to low-temperature treatment by being cultivated for 7 days at 1.5±1.0° C., an illuminance of 2,000 lux, and a day length of 16 hours.
The nursery plants of the Nicotiana benthamiana having undergone the low-temperature stress treatment were cultivated for 3 days at 22° C., an illuminance of 4,000 lux, and a day length of 16 hours. Thereafter, the area of green leaf was quantified by Scanalyzer HTS (manufactured by LemnaTec GmbH). Moreover, the value of the control plot not treated with the compound that had not yet been subjected to the low-temperature stress treatment was measured in the same manner. A value of a relative leaf area was calculated based on the following equation (1), and if the value of a relative leaf area was 5 or greater, the compound was evaluated to have a mitigating effect. As a result of the evaluation, it was confirmed that when the plant was treated with one of the compounds 1, 8, 9, 13, 18, 19, 22, 23, 29, 32, 33, 34, 39, 40, 41, 43, 44, 51, 53, 54, 55, 56, 58, 60, 62, 63, 64, 65, 67, 69, 71, 73, 74, 75, 77, 79, 82, 83 and 86 of the present invention at 10 ppm, the value of a relative leaf area was 5 or greater, compared to the area of green leaf of the control plot not treated with compound. Accordingly, it was confirmed that the treatment using the compound of the present invention brings about a growth promotion effect.
Relative leaf area=100*(a green area of a plot treated with the compound of the present invention−a green area of a control plot not treated with the compound of the present invention)/(a green area of a control plot not treated with the compound of the present invention that has not yet been subjected to low-temperature stress treatment−a green area of a control plot not treated with the compound of the present invention) Equation (1): […]

Q: How did the “Relative value of length of seminal root (%-untreated control plot)” value (“Relative value … (%-untreated control plot)” below) [1] turn out when `COC(=O)c1cc2ccccc2[nH]1` [Compound 13] was run?
A: >5%

Q: What does the source list for `COC(=O)c1oc2ccccc2c1O` [Compound 35]?
A: change in vivo at 1 ppm [2]: > 5%; change in vivo at 10 ppm [1]: > 5%

Q: Which results are given for `CCOC(=O)c1cc2ccc(C(F)(F)F)cc2o1` [Compound 46]?
A: change in vivo at 1 ppm [2]: > 5%; change in vivo at 10 ppm [1]: > 5%; change in vivo at 0.1 ppm [3]: > 5%

Q: What does the source list for `Nc1c(C(=O)O)oc2ccc(C(F)(F)F)cc12` [Compound 49]?
A: change in vivo at 1 ppm [2]: > 5%; change in vivo at 10 ppm [1]: > 5%

Q: For `COC(=O)c1oc2ccccc2c1NS(=O)(=O)c1ccccc1` [Compound 61], which change in vivo at 1 ppm [2] is on record?
A: > 5%

Q: What about the change in vivo at 10 ppm [1] of the same molecule?
A: > 5%

Q: And the change in vivo at 0.1 ppm [3]?
A: > 5%

Q: With `O=C(O)c1cc2ccc(C(F)(F)F)cc2o1` [Compound 47] as the molecule, how does the change in vivo at 1 ppm [2] read?
A: > 5%

Q: What about the change in vivo at 10 ppm [1] of the same molecule?
A: > 5%

Q: What about the change in vivo at 0.1 ppm [3] of the same molecule?
A: > 5%

Q: How did the relative leaf area at 10 ppm (Nicotiana benthamiana) turn out when `O=C(O)c1nc2ccccc2[nH]1` [Compound 18] was run?
A: ≥ 5%

Q: What about the change in vivo at 10 ppm [1] of the same molecule?
A: > 5%

Q: With `O=C(Oc1ccccc1)c1oc2ccc(C(F)(F)F)cc2c1C(F)(F)F` [Compound 72] as the molecule, how does the change in vivo at 0.1 ppm [3] read?
A: > 5%

Q: For `COC(=O)c1nc2ccc(C(F)(F)F)cc2n1C` [Compound 25, methyl 1-methyl-6-trifluoromethylbenzimidazole-2-carboxylate], which change in vivo at 10 ppm [1] is on record?
A: > 5%

Q: For `COC(=O)c1cc2ccccc2n1C` [Compound 15], which change in vivo at 1 ppm [2] is on record?
A: > 5%

Q: How did the change in vivo at 10 ppm [1] turn out when `COC(=O)c1nc2cccnc2n1C` [Compound 26, methyl 3-methyl-3H-imidazo[4,5-b]pyridine-2-carboxylate] was run?
A: > 5%

Q: For `COC(=O)c1oc2ccccc2c1N(C(=O)C(F)(F)F)C(=O)C(F)(F)F` [Compound 38], which change in vivo at 1 ppm [2] is on record?
A: > 5%

Q: And the change in vivo at 10 ppm [1]?
A: > 5%

Q: And the change in vivo at 0.1 ppm [3]?
A: > 5%

Q: Which change in vivo at 10 ppm [1] does the source give for `COc1ccc(NC(=O)c2cc3cc(C(F)(F)F)ccc3[nH]2)c(OC)c1` [Compound 10, N-(2,4-dimethoxyphenyl)-5-trifluoromethylindole-2-carboxamide] here?
A: > 5%

Q: For `CCOC(=O)c1cc2cccc(C(F)(F)F)c2[nH]1` [Compound 12], which “Relative value … (%-untreated control plot)” value [2] is on record?
A: >5%

Q: How did the “Relative value … (%-untreated control plot)” value [1] turn out when `COC(=O)c1nc2ccccc2[nH]1` [Compound 19] was run?
A: >5%

Q: With `O=C(O)c1cc2cccc(C(F)(F)F)c2[nH]1` [Compound 11] as the molecule, how does the “Relative value … (%-untreated control plot)” value [2] read?
A: >5%

Q: Which “Relative value … (%-untreated control plot)” value [2] does the source give for `Cn1c(C(=O)O)cc2ccccc21` [Compound 14] here?
A: >5%
